Reference: PubChem BioAssay (NCI)
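Cells were grown in 96-well plates and exposed to each compound for 48 hours at five concentrations; endpoints were interpolated linearly between bracketing concentrations, or set to the highest concentration if not reached. TGI marks complete inhibition of growth.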

Assays:
Assay in all cases: NCI-60 cell line screen, 48 h
SF-295 CNS = tested on: SF-295 CNS
SK-OV-3 ovarian = tested on: SK-OV-3 ovarian
NCI-H522 lung = tested on: NCI-H522 lung
NCI-H23 lung = tested on: NCI-H23 lung
NCI-H226 lung = tested on: NCI-H226 lung
LOX IMVI melanoma = tested on: LOX IMVI melanoma
SK-MEL-28 melanoma = tested on: SK-MEL-28 melanoma
KM12 colon = tested on: KM12 colon
SK-MEL-5 melanoma = tested on: SK-MEL-5 melanoma
HL-60(TB) leukemia = tested on: HL-60(TB) leukemia
U251 CNS = tested on: U251 CNS
IGROV1 ovarian = tested on: IGROV1 ovarian
CCRF-CEM leukemia = tested on: CCRF-CEM leukemia
SNB-19 CNS = tested on: SNB-19 CNS
SN12C renal = tested on: SN12C renal
HOP-92 NSCLC = tested on: HOP-92 NSCLC
UACC-257 melanoma = tested on: UACC-257 melanoma
EKVX NSCLC = tested on: EKVX NSCLC
SR leukemia = tested on: SR leukemia

SMILES	TGI (SF-295 CNS) [µM]	TGI (SK-OV-3 ovarian) [µM]	TGI (NCI-H522 lung) [µM]	TGI (NCI-H23 lung) [µM]	TGI (NCI-H226 lung) [µM]	TGI (LOX IMVI melanoma) [µM]	TGI (SK-MEL-28 melanoma) [µM]	TGI (KM12 colon) [µM]	TGI (SK-MEL-5 melanoma) [µM]	TGI (HL-60(TB) leukemia) [µM]	TGI (U251 CNS) [µM]	TGI (IGROV1 ovarian) [µM]	TGI (CCRF-CEM leukemia) [µM]	TGI (SNB-19 CNS) [µM]	TGI (SN12C renal) [µM]	TGI (HOP-92 NSCLC) [µM]	TGI (UACC-257 melanoma) [µM]	TGI (EKVX NSCLC) [µM]	TGI (SR leukemia) [µM]
O=C(CSc1nnc(Cc2ccccc2)o1)Nc1ccccc1Cl	> 100	> 100	> 100	> 100	> 100	> 100	> 100	> 100	> 100	> 100	> 100	> 100	> 100	> 100	> 100				
Fc1ccc2c(c1)SC1Oc3ccccc3-c3c1c-2nn3-c1ccccc1 (centres undefined)	> 100	> 100	> 100	> 100		> 100	> 100	> 100		> 100	> 100	> 100	> 100			> 100	> 100	> 100	
COc1cc(C(C#N)NNC(=O)Cc2ccccc2)cc(OC)c1OC (centres undefined)	> 100	> 100	> 100	> 100	> 100	> 100	> 100	> 100	> 100	> 100	> 100	> 100			> 100	> 100	> 100		> 100
CCCCCCCC/C=C\CCCCCCCC(=O)OC[C@]1(CO)CCC(=O)O1	> 100	> 100	> 100	> 100	> 100	> 100	> 100	> 100	> 100		> 100	> 100	> 100	> 100	> 100	> 100	> 100	> 100	> 100
O=C1N(CN2CCOCC2)CN(CN2CCOCC2)C(=O)N1Cc1ccc(-c2ccc(CN3C(=O)N(CN4CCOCC4)CN(CN4CCOCC4)C3=O)cc2)cc1	65.6	> 100	35.4	47.5	> 77.3	40.6	36.2	77.3	> 38.9		> 70.8	46.4		31.2		36.4	37.9	61.5	18.9
CN(C(=O)[C@@H](NC(=O)OC(C)(C)C)c1ccccc1)[C@H]1CCCC[C@@H]1N1CCCC1	> 100	> 100	> 100	> 100	> 100		> 100	> 100	> 100	> 100	> 100	> 100		> 100	> 100		> 100	> 100	> 100
Cc1ccc(/C=C/C(=O)C(C)C)cc1	> 100	> 100	> 100	> 100			> 100	> 100	> 100		> 100	> 100	67.3	> 100		> 100	> 100	> 100	98.4
Cc1nc2nn(Cc3ccccc3)cc2c(=O)o1	> 100				> 100	> 100		> 100	> 100	> 100	> 100	> 100	> 100	> 100	> 100		> 100	> 100	
CC(C)c1cccc(C(C)C)c1NC(=O)C(=O)CC(=O)CC(c1ccccc1)c1c(O)c2ccccc2oc1=O (centres undefined)	> 100	> 100	> 100	> 100			> 100	> 100	> 100	> 100		> 100	> 100	> 100	> 100	> 100	> 100	> 100	> 100
COc1cc2c(cc1OC)C(=O)Cc1ccc3c(c1CNCC2)OCO3	> 100	> 100	> 100	> 100			> 100	> 100	> 100		> 100	> 100	> 100	> 100	> 100		> 100	> 100	
O=[N+]([O-])c1cc2c(cc1O)[nH]c1cccc([N+](=O)[O-])c12	> 100		> 100	> 100	> 100	> 100	> 100	> 100	> 100	> 100			> 100	> 100	> 100		> 100		> 100
COc1cc2c(cc1O)[C@H](C)C(c1ccccc1OC)O2 (some centres undefined)	22.9	> 100	9.25	> 100	72.3	26.7	> 100	> 100	19.7	7.5	8.01	> 100	30.6	> 100		62.8	> 100	> 100	
